Results as given in patent publication US20230253066A1, “DESIGNED PROTEINS FOR LIGAND BINDING” (The Regents of the University of California, priority 2020, published 2023).

Molecular target: ABLE
Assay: Fluorescence anisotropy ligand competition on ABLE (displacement of apixaban-peg-FITC)
Type: binding
Description: We performed fluorescence anisotropy experiments (54, 55) of ABLE and LABLE using a FITC fluorophore conjugated to apixaban as the fluorescent probe (FIGS. 512A-512D and Scheme 1). We serially diluted a concentrated protein solution containing 25 nM Apx-peg-FITC, holding constant the concentration of Apx-peg-FITC. Parallel and perpendicularly polarized emission at 528 nm (10 nm slit width, 510 nm long pass filter) were integrated for 10 seconds after 485 nm (5 nm slit width) excitation of the FITC fluorophore of Apx-peg-FITC. The data were fit to a single-site binding model (Equation 2, with N=1) (FIG. S12B). We performed ligand competition experiments (54, 55) by adding aliquots of a concentrated ligand stock in DMSO into an approximately 50% bound complex of protein and Apx-peg-FITC (25 nM). The decrease in anisotropy as a function of competing ligand was fit to a competitive binding model (54, 55) (FIG. 4D and FIG. S12C and FIG. S12D). Because effects of DMSO on the anisotropy of bound ABLE/Apx-peg-FITC complex become more pronounced at high concentrations of DMSO (>4%), we fit only the initial data points at low DMSO concentration (% DMSO <2%, FIG. 4D). […] DMSO may have a minor effect on competitive binding with weaker competitors (i.e., apixabanCOO^− and rivaroxaban), where high concentrations of competitor are needed to decrease anisotropy. As such, the reported dissociation constants of these weaker competitors can be viewed as a lower limit to the KD. Fluorescence polarization competition with apixaban as competitor gives a KD of 7 (±1) μM for the apixaban/ABLE complex (FIG. 4D), which agrees with that of the more precise spectral titration [KD=5 (±1) μM]. Binding experiments were performed at least twice to confirm reproducibility, and the reported errors correspond to the uncertainty in the fit parameters.

| Kd (ABLE 20 μM, apixaban-peg-FITC 25 nM, 50 mM NaPi, 100 mM NaCl, pH 7.4, fit of initial points at DMSO <2%, KD of weaker competitors viewed as lower limit, read-out: KD of competing ligand for ABLE, competitive binding model) [µM] | fold tighter binding to ABLE than rivaroxaban (fluorescence polarization competition, FIG. 4D) [fold] | binding to ABLE (in words) (competition with apixaban-peg-FITC) | Compound |
| --- | --- | --- | --- |
| 7 | 20 | – | COc1ccc(-n2nc(C(N)=O)c3c2C(=O)N(c2ccc(N4CCCCC4=O)cc2)CC3)cc1 [apixaban] |
| – | – | only very weak binding | O=C(NC[C@H]1CN(c2ccc(N3CCOCC3=O)cc2)C(=O)O1)c1ccc(Cl)s1 [rivaroxaban] |
